Results from ChEMBL document CHEMBL1201862, “PubChem BioAssay data set” (2004).
Calls of active or inactive are those of the source.

Experiments:
[1] = target: T1, Neuropeptides B/W receptor type 1 (Homo sapiens, UniProt P48145); assay: GPR7 antagonist potency, late-stage follow-up, cell-based, fluorescence, dose response (AID 463251); format: functional
T1 sequence (P48145 whole entry): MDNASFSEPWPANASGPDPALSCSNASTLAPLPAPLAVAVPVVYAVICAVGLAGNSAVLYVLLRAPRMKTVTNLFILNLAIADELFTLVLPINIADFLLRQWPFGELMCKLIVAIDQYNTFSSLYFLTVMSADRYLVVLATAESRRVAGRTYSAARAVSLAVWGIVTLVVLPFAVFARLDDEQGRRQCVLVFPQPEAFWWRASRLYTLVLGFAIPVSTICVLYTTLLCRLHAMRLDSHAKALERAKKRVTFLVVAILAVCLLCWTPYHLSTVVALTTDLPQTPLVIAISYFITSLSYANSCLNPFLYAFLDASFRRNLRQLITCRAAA

[2] = target: Melanin-concentrating hormone receptor 1 (Homo sapiens, UniProt Q99705); assay: Late-stage fluorescence-based counterscreen for antagonists of the G-protein coupled receptor 7 (GPR7): cell-based dose response assay to identify antagonists of the melanin-concentrating hormone receptor 1 (MCHR1). [Related pubchem assays (depositor defined):AID1861, AID1880, AID1952, AID2148, AID2251, AID2257, AID485339]; format: functional;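 further: stimulated with 30 nM MCH peptide agonist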
Sequence of Melanin-concentrating hormone receptor 1 (Q99705 whole entry): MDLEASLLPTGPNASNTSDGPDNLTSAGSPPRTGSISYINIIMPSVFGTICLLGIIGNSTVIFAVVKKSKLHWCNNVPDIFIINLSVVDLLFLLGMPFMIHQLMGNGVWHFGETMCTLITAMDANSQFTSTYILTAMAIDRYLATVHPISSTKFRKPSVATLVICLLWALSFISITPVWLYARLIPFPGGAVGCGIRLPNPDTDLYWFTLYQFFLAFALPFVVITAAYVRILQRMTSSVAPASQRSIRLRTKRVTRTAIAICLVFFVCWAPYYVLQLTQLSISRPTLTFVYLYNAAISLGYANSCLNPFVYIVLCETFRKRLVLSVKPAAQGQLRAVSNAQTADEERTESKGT

[3] = target: Polyadenylate-binding protein 1 (Homo sapiens, UniProt P11940); assay: PABP inhibition in translation initiation, SAR follow-up (AID 435018); format: functional
Sequence of Polyadenylate-binding protein 1 (P11940 whole entry): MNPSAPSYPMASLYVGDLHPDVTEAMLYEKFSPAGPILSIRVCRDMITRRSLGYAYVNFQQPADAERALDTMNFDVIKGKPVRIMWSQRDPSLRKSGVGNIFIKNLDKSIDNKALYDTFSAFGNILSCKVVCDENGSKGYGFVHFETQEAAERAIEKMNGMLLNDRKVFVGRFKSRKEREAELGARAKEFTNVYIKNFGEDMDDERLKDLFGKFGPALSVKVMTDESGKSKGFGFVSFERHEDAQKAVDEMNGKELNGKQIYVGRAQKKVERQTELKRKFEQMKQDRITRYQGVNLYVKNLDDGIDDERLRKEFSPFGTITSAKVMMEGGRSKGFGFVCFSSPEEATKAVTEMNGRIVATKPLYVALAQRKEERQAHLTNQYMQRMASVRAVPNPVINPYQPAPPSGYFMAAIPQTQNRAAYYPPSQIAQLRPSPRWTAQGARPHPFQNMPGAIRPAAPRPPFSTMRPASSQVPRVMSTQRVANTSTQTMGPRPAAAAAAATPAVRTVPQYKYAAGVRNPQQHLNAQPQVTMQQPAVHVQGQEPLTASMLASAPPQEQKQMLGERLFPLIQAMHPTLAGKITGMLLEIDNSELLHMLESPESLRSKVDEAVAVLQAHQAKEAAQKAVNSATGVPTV

[4] = target: Eukaryotic translation initiation factor 4H (Homo sapiens, UniProt Q15056); assay: eIF4H inhibition in translation initiation, SAR follow-up (AID 435011); format: functional
[5] = control 3'UTR Renilla luciferase suppression, dose response, counter-screen for Shn3 inhibitor project, cell-based, Clone20-Shn3RL, cherry-picked (AID 624133); format: functional
[6] = Shn3 3'UTR reporter inhibitors, dose response, cell-based, Clone20 osteoblasts, firefly luciferase, cherry-picked (AID 624132); format: functional;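 further: firefly luciferase luminescence from reporter carrying the Shn3 3'UTR in osteoblasts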
[7] = HepG2 cell cytotoxicity, dose response, cytotoxicity control for Shn3 inhibitor project, CellTiter-Glo, cherry-picked (AID 624134); format: functional, cell-based
Beta-galactosidase = Beta-galactosidase (Escherichia coli, UniProt Q8VNN2); assay: beta-galactosidase enzyme inhibitors and activators, dose response, artefact control for CCR6 antagonist project, biochemical, E. coli enzyme, set 3 (AID 504712); format: functional
[8] = target: Intestinal-type alkaline phosphatase (Homo sapiens, UniProt P09923); assay: Dose Response confirmation of uHTS hits from a small molecule inhibitors of human intestinal alkaline phosphatase via a luminescent assay. [Related pubchem assays (depositor defined):AID2544, AID2574]; format: functional
Sequence of Intestinal-type alkaline phosphatase (P09923 whole entry): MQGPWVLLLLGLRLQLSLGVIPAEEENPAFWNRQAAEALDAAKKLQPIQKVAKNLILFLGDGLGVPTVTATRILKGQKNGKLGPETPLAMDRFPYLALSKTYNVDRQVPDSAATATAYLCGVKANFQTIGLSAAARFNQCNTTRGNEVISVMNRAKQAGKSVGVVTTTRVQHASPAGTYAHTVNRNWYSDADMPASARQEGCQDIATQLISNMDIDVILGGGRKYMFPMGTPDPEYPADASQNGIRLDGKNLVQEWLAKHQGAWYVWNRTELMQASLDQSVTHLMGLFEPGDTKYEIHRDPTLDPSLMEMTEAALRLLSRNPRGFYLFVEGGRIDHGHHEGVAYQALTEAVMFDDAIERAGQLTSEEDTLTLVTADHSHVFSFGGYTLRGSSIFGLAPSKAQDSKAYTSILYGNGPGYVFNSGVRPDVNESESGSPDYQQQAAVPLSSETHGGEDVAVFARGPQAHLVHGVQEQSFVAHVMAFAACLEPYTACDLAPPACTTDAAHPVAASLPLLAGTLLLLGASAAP

[9] = target: Acylamino-acid-releasing enzyme (Homo sapiens, UniProt P13798); assay: PME-1 inhibitor potency by in-gel ABPP, dose response, selectivity assay for PME-1 inhibitor project, cell lysate, mouse brain cytosol, FP-rhodamine, panel member APEH Assay Panel member description: Inhibition of N-acylaminoacyl-peptide hydrolase (APEH) (anti-target) (AID 2366)
Sequence of Acylamino-acid-releasing enzyme (P13798 whole entry): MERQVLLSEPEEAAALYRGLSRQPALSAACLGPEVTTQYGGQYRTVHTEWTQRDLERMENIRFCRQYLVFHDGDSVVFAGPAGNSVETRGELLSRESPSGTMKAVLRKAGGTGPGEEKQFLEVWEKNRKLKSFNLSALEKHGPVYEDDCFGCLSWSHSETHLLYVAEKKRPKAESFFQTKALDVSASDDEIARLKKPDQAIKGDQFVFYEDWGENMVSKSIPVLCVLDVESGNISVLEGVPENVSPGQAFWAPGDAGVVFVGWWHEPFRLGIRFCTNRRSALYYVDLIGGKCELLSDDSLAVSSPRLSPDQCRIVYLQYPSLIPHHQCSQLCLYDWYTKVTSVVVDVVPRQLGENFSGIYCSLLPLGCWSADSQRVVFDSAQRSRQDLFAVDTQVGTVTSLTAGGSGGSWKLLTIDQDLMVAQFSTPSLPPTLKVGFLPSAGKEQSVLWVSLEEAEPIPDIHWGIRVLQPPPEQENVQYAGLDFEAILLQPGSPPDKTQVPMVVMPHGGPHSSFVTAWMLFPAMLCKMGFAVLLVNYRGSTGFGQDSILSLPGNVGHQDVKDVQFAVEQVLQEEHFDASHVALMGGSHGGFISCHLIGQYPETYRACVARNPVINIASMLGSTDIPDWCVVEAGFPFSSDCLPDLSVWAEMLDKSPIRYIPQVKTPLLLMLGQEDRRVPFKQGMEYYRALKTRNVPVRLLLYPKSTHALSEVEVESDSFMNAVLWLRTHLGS

[10] = Late stage results from the probe development effort to identify inhibitors of the protein methylesterase PME-1: Luminescence-based counterscreen assay to identify cytotoxic compounds.; format: functional
Vero [11] = assay: cytotoxicity of synthesized analogs in Vero cells, SAR follow-up, cytotoxicity control for West Nile virus antiviral project, cell-based, set II (AID 2402); format: functional; conditions: Chlorocebus sabaeus
Vero [12] = assay: cytotoxicity of synthesized analogs in Vero 76, SAR follow-up, cytotoxicity control for West Nile virus antiviral project, Vero 76 cells (AID 2414); format: functional; conditions: Chlorocebus sabaeus
Vero [13] = assay: West Nile virus CPE inhibition, SAR follow-up, cell-based, synthesized analogs (AID 2238); format: functional; conditions: Chlorocebus sabaeus
Vero [14] = assay: Vero E6 cell cytotoxicity, SAR follow-up, cytotoxicity control for West Nile virus antiviral project, synthesized analogs (AID 2244); format: functional; conditions: Chlorocebus sabaeus
[15] = target: G-protein coupled receptor 55 (Homo sapiens, UniProt Q9Y2T6); assay: GPR55 agonists via beta-arrestin recruitment, primary screen, imaging, U2OS cells, beta-arrestin-GFP redistribution (AID 1961); format: functional
Sequence of G-protein coupled receptor 55 (Q9Y2T6 whole entry): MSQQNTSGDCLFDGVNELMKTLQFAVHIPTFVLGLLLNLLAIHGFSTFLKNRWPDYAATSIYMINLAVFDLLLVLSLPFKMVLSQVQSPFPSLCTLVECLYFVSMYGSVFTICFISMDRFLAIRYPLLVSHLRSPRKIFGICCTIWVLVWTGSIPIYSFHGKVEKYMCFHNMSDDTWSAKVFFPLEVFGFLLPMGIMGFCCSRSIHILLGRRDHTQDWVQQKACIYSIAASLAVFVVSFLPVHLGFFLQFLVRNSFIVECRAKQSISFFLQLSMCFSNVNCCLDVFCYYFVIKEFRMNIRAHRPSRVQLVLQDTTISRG

[16] = microbe, parasite or virus in culture; format: functional; conditions: Mycobacterium tuberculosis
[17] = target: Female germline-specific tumor suppressor gld-1 (Caenorhabditis elegans, UniProt Q17339); assay: inhibitors of GLD-1 binding to TGE RNA, dose response, biochemical, fluorescence polarization, C. elegans (AID 2802);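 further: fluorescence polarization of labeled TGE RNA bound by purified gld-1 protein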
Sequence of Female germline-specific tumor suppressor gld-1 (Q17339 whole entry): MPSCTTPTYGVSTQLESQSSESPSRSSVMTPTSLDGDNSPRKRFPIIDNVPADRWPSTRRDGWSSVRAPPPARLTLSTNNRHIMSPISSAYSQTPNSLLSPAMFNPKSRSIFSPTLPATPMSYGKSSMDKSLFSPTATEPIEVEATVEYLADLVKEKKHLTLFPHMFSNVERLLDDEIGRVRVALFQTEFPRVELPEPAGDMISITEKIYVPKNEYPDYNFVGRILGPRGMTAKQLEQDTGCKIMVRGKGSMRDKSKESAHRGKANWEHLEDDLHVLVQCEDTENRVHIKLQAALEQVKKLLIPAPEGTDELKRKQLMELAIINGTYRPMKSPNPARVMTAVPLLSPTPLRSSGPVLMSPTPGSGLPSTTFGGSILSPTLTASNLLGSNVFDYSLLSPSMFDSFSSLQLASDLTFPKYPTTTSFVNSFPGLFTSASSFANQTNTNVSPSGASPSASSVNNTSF

Protein Rev = Protein Rev (Human immunodeficiency virus type 1 group M subtype B (isolate HXB2)(HIV-1), UniProt P04618); assay: inhibitors of Rev binding to RRE RNA, dose response, biochemical, fluorescence polarization, HIV-1 (AID 434976); set-up: species or system Human immunodeficiency virus 1
Sequence of Protein Rev (P04618 whole entry): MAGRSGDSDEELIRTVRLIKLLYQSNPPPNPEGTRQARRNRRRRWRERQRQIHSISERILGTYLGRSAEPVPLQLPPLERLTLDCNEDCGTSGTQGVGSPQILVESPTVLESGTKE

Genome polyprotein = Genome polyprotein (Hepatitis C virus, UniProt Q2Q167); assay: HCV core protein dimerization inhibitors, dose response, biochemical, TR-FRET (AID 2159); set-up: species or system Hepacivirus hominis;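 further: blocks dimerization of HCV core protein measured by TR-FRET between tagged core106 pairs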
Sequence of Genome polyprotein (Q2Q167 whole entry): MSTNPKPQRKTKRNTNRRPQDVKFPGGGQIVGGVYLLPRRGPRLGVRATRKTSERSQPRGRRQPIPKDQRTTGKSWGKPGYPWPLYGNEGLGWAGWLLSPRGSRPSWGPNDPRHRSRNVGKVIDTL

[18] = target: Eukaryotic translation initiation factor 4E (Mus musculus, UniProt P63073); assay: eIF4E–eIF4G protein interaction inhibitors, dose response, biochemical, TR-FRET (AID 855); format: functional;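 further: potency for disrupting eIF4E binding to eIF4GI seen as loss of FRET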
[19] = growth suppression of beta-catenin-knockout colon cells, dose response, cell-based, HCT116, human colon tumor (AID 1045); format: functional;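 further: HCT116 colon tumor cells with beta catenin knocked out; cells exposed to compound for 60 hours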
Protein RecA = target: T2, Protein RecA (Mycobacterium tuberculosis, UniProt P9WHJ3); assay: Fluorescence Cell-Free Homogeneous Dose Retest to Identify Inhibitors of RecA-Intein Splicing Activity. [Related pubchem assays (depositor defined):AID2097, AID2223, AID489010, AID492950]; format: functional
T2 sequence (P9WHJ3 whole entry): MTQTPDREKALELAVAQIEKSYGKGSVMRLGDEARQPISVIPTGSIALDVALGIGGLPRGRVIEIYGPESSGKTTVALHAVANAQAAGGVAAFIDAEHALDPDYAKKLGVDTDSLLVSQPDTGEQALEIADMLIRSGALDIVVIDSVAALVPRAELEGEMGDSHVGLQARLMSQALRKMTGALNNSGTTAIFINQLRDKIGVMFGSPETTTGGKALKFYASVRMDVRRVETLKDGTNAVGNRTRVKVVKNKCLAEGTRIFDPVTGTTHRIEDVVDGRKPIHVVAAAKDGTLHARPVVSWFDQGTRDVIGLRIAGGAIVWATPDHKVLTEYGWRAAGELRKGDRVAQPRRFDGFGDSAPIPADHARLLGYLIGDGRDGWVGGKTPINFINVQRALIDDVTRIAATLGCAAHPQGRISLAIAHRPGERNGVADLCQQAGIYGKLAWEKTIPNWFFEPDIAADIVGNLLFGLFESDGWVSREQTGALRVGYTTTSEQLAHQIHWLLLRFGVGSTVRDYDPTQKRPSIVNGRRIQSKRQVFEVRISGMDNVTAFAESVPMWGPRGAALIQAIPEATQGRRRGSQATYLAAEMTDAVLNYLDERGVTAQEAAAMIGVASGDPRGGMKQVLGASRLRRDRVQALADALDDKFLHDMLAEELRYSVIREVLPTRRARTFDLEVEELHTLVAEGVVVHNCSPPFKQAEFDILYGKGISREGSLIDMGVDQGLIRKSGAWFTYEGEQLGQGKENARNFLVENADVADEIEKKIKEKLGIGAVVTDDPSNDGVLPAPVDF

[20] = growth suppression of PTEN-null colon cells, dose response, cell-based, HCT116 PTEN knockout (AID 1047); format: functional;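 further: HCT116 colon tumor cells with PTEN knocked out; cells exposed to compound for 60 hours before readout; potency for loss of cell viability measured by luminescence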
Paired box protein Pax-8 = Paired box protein Pax-8 (Homo sapiens, UniProt Q06710); assay: inhibitors of PAX8-driven TPO luciferase reporter, dose response, RMG-I cells, cherry-pick (AID 687027); format: functional, cell-based;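 further: luciferase reporter driven by Pax8 target thyroperoxidase promoter measured by SteadyGlo luminescence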
Sequence of Paired box protein Pax-8 (Q06710 whole entry): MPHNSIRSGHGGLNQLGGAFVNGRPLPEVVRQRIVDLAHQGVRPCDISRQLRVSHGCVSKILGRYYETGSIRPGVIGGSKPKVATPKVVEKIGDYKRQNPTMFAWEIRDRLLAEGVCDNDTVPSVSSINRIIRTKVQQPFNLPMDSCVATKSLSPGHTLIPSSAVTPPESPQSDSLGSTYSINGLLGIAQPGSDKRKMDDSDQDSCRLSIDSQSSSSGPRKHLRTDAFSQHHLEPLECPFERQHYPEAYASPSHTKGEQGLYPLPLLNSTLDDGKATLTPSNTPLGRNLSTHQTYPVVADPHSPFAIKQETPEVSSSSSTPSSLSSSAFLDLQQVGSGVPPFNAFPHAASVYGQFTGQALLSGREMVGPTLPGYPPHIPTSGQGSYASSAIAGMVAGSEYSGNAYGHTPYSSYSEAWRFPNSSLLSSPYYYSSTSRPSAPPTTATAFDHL

INS1 = assay: beta cell apoptosis inhibitors, cytokine rescue, dose response, luminescence, retest (AID 449756); format: functional, cell-based; conditions: Rattus norvegicus;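 further: cell death triggered by IL-1 beta plus TNF-alpha plus IFN-gamma mixture; protective hits raise ATP signal compared with cytokine alone wells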
BJ = assay: cytotoxicity toward Ras-transformed BJeLR fibroblasts, dose response, cell-based, alamar blue fluorescence, cherrypicked samples (AID 2631); format: functional; conditions: Homo sapiens;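 further: confirmatory dose-response assay in RAS-dependent BJ fibroblasts engineered with TERT, LT and ST, with cytotoxicity read by fluorescence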
[21] = target: T3, Replicative DNA helicase DnaB (Mycobacterium tuberculosis, UniProt P9WMR3); assay: DnaB intein splicing inhibitors, dose response, biochemical, cell-free fluorescence (AID 449749); format: functional
T3 sequence (P9WMR3 whole entry): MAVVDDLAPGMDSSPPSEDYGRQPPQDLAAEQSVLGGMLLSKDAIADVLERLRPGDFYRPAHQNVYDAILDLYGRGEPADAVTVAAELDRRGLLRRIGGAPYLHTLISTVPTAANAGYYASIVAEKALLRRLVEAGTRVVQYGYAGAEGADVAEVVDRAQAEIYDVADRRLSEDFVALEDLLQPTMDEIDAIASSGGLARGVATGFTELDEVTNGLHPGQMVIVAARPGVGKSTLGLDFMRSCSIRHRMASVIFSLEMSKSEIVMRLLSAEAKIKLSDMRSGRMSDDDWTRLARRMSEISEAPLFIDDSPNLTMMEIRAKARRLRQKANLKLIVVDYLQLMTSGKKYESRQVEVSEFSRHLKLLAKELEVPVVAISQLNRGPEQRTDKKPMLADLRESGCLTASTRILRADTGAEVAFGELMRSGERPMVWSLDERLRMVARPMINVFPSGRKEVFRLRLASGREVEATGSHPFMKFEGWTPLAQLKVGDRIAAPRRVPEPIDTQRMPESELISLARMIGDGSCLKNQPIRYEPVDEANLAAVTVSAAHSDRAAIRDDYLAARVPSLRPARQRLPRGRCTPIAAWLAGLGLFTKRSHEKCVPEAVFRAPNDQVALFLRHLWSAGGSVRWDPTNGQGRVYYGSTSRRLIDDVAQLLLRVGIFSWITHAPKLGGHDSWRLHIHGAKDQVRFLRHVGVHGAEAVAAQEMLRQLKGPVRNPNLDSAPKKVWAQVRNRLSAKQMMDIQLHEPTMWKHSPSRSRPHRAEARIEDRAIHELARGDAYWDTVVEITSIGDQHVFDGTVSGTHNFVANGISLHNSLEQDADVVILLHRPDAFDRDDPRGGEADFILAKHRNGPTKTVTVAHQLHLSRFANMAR

[22] = target: G-protein coupled receptor 35 (Homo sapiens, UniProt Q9HC97); assay: GPR35 antagonists blocking zaprinast-driven arrestin recruitment, primary screen, imaging, U2OS, beta-arrestin-GFP, zaprinast agonist (AID 2058); format: functional;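 further: antagonist potency meaning inhibition of agonist-induced arrestin redistribution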
Sequence of G-protein coupled receptor 35 (Q9HC97 whole entry): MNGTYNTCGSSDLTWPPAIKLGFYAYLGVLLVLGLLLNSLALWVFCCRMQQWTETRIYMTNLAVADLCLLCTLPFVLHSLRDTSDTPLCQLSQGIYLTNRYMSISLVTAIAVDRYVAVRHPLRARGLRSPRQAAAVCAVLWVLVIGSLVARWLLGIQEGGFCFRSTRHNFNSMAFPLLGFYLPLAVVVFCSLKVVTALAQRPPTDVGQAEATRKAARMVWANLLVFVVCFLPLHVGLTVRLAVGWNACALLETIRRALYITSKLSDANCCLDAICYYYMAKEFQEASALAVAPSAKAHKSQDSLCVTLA

Phosphomannomutase 2 = Phosphomannomutase 2 (Homo sapiens, UniProt O15305); assay: Counter screen SAR assay for PMM2 inhibitors via a fluorescence intensity assay. [Related pubchem assays (depositor defined):AID1545, AID1574]
Sequence of Phosphomannomutase 2 (O15305 whole entry): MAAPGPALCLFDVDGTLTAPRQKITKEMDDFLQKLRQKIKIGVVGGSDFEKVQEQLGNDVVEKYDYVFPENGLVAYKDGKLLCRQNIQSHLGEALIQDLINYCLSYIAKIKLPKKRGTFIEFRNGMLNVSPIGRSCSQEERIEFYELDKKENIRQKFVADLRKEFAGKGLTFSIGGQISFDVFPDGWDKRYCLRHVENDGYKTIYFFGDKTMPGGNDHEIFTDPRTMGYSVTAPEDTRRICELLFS

[23] = target: Phosphoethanolamine/phosphocholine phosphatase (Homo sapiens, UniProt Q8TCT1); assay: SAR assay for compounds that inhibit PHOSPHO1. [Related pubchem assays (depositor defined):AID1545, AID1565, AID1574]
Sequence of Phosphoethanolamine/phosphocholine phosphatase (Q8TCT1 whole entry): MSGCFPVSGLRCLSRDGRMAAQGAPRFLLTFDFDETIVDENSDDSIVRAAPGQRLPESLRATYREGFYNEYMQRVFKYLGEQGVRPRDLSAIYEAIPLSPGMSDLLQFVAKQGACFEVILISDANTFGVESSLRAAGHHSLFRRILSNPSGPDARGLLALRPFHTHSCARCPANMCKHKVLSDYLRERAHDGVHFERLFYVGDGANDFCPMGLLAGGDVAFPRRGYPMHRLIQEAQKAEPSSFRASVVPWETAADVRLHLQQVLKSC

[24] = target: T4, Mannose-6-phosphate isomerase (Homo sapiens, UniProt P34949); assay: PMI enzyme inhibitors, confirmation, biochemical, fluorescence intensity (AID 1535)
T4 sequence (P34949 whole entry): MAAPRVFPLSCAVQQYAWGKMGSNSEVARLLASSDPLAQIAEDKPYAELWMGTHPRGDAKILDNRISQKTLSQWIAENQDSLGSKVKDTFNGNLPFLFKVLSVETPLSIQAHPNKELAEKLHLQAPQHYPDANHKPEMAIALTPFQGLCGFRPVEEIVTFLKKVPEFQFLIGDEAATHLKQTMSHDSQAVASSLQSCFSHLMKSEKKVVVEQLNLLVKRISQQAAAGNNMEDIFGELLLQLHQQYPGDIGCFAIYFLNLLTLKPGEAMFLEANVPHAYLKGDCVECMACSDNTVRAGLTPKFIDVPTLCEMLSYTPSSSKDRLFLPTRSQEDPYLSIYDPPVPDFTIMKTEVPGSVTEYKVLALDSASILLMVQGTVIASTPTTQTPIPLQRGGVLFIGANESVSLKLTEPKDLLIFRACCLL

Structure (SMILES): COc1ccc(Oc2c(Cl)cnn(-c3cccc(C#N)c3)c2=O)cc1
- IC50 [1]: 2.8 µM (active)
- IC50 [2]: 14.2 µM (inactive)

Structure (SMILES): Cc1cc(Cl)ccc1NC(=O)C1CCN(C(=O)c2cccs2)CC1
- IC50 [3]: > 100 µM (inactive)
- IC50 [4]: > 100 µM (inactive)

Structure (SMILES): O=C1CC(Sc2nnc(-c3ccccc3O)o2)C(=O)N1c1ccccc1 (configuration not stated)
- AC50 [5]: 17.8 µM (active)
- AC50 [6]: 12.9 µM (active)
- AC50 [7]: 45.2 µM (active)
- IC50 (Beta-galactosidase): > 66.6 µM (inactive)

Structure (SMILES): O=C(NCCCN1CCOCC1)c1ccc2c(c1)N(Cc1ccc(Cl)cc1)C(=O)c1ccccc1[S+]2[O-] (configuration not stated)
- IC50 [8]: > 100 µM (inactive)

Structure (SMILES): N#C/C(=C\c1cccn1S(=O)(=O)c1cccc([N+](=O)[O-])c1)S(=O)(=O)c1ccc(F)cc1
- IC50 [9]: > 50 µM (inactive)
- CC50 [10]: 100 µM (active)

Structure (SMILES): O=C(CSc1nc2ccccc2c(=O)n1-c1ccc(Cl)c(Cl)c1)Nc1ccc2c(c1)CCC2
- CC50 (Vero [11]): > 100 µM (active)
- CC50 (Vero [12]): > 66.6 µM (active)
- IC50 (Vero [13]): 17.3 µM (active)
- CC50 (Vero [14]): > 40 µM (active)

Structure (SMILES): COC(=O)c1c(NC(=O)CN(c2ccccc2)S(C)(=O)=O)sc2c1CCCC2
- EC50 [15]: 0.577 µM (active)

Structure (SMILES): CC1=CC(=O)c2c(O)ccc(O)c2C1=O
- CC50 [16]: 12.9 µM (active)
- IC50 [17]: 5.58 µM (active)
- IC50 (Protein Rev): > 75.4 µM (not active)
- IC50 (Genome polyprotein): > 49.8 µM (not active)
- IC50 [18]: 10.3 µM (active)

Structure (SMILES): O=S(=O)(/C(=C/c1ccc(C(F)(F)F)cc1)c1nc2ccccc2[nH]1)c1ccccc1
- EC50 [19]: 1.68 µM (active)
- EC50 (Protein RecA): 5.85 µM (active)
- EC50 [20]: 1.89 µM (active)
- AC50 (Paired box protein Pax-8): 2.82 µM (active)
- AC50 (INS1): 4.43 µM (active)
- EC50 (BJ): 0.601 µM (active)
- AC50 [21]: 3.54 µM (active)
- IC50 [22]: > 32 µM (inactive)

Structure (SMILES): O=c1c2ccccc2sn1-c1cc(S(=O)(=O)N2CCOCC2)ccc1N1CCCCC1
- IC50 (Phosphomannomutase 2): > 100 µM (inactive)
- IC50 [23]: 39.4 µM (inactive)
- IC50 [24]: 39.2 µM (active)
